Common to all, as to format: cell-based
One experiment deals with AXL (Homo sapiens (Human), UniProt P30530). Description: AXL autophosphorylation ELISA in A-172 cells. Conditions: cellular, Gas6-stimulated, phospho-AXL ELISA. How it is done:
A-172 glioblastoma cells (ATCC #CRL-1620) were seeded at 2.5×10^5 cells/well onto 24-well plates (Greiner #662165), in […] (Thermo Fisher #11995-040) containing 10% FBS (Thermo Fisher #26140-079), […] (Thermo Fisher #11140-050), […] (Thermo Fisher #35050-061), and 1% Penicillin Streptomycin (Thermo Fisher #15140-122). A-172 cells were incubated at 37° C., […] for 24 hand then starved for 24 h in serum-free medium. Test compounds were serially diluted to produce an 8-point dose curve in fresh serum-free medium to a final concentration of 0.3% DMSO (vehicle) and added to the cells and incubated for 1 h. Cells were then stimulated with 1 μg/mL recombinant human Gas6 (R&D Systems #885-GSB-500) for 15 min, washed with cold PBS, and immediately lysed with 150 μL of cold 1× lysis buffer [20 mM Tris, 137 mM sodium chloride, 2 mM EDTA, 10% glycerol, 1% NP-40 alternative, 1 mM activated sodium orthovanadate, 1 mM PefaBloc SC (Sigma-Aldrich #11429868001), protease/phosphatase inhibitor tablet (Thermo Fisher #A32959)]. Lysates were collected and 100 μL/well added into the human phospho-AXL DuoSet IC ELISA (R&D Systems #DYC2228-2). Assay was performed according to manufacturer's instructions and sample phospho-AXL concentrations were extrapolated using human phospho-AXL control (R&D Systems #841645) as a standard. Positive control wells (100% activity) contained Gas6-stimulated, DMSO-treated cell lysates. Negative control wells (0% activity) contained Gas6-stimulated, reference inhibitor-treated cell lysates. IC50 values were calculated by nonlinear regression analysis using a 4-parameter logistic curve fit in ActivityBase XE (IDBS).
For orientation: An ELISA detects its analyte on a solid surface through an enzyme-linked reagent.

For another experiment, the target named is Met (Homo sapiens (Human), UniProt P08581). Description: Met autophosphorylation ELISA in PC-3 cells. The following applies: cellular, HGF-stimulated, phospho-Met ELISA, read-out: c-Met IC50. The procedure:
PC-3 prostate cancer cells (ATCC #CRL-1435) were seeded at 4×10^4 cells/well onto 24-well plates (Greiner #662165), in DMEM (Thermo Fisher #11995-040) containing 10% FBS (Thermo Fisher #26140-079), 1% MEM NEAA (Thermo Fisher #11140-050), 1% GlutaMax (Thermo Fisher #35050-061), and 1% Penicillin Streptomycin (Thermo Fisher #15140-122). PC-3 cells were incubated at 37° C., 5% CO2 for 24 h and then starved for 3 h in serum-free medium. Test compounds were serially diluted to produce an 8-point dose curve in fresh serum-free medium to a final concentration of 0.3% DMSO (vehicle) and added to the cells and incubated for 1 h. Cells were then stimulated with 100 ng/mL recombinant human HGF (R&D Systems #294-HG-250) for 10 min, washed with cold PBS, and immediately lysed with 130 μL of cold 1× lysis buffer [20 mM Tris, 137 mM sodium chloride, 2 mM EDTA, 10% glycerol, 1% NP-40 alternative, 1 mM activated sodium orthovanadate, 1 mM PefaBloc SC (Sigma-Aldrich #11429868001), and protease/phosphatase inhibitor tablet (Thermo Fisher #A32959)]. Lysates were clarified by centrifugation and 100 μL/well added into the PathScan phospho-Met (panTyr) Sandwich ELISA (Cell Signaling Technology #7333). Assay was performed according to manufacturer's instructions. Positive control wells (100% activity) contained HGF-stimulated, DMSO-treated cell lysates. Negative control wells (0% activity) contained HGF-stimulated, reference inhibitor-treated cell lysates. IC50 values were calculated by nonlinear regression analysis using a 4-parameter logistic curve fit in ActivityBase XE (IDBS).

In a further experiment the target is KDR (Homo sapiens (Human), UniProt P35968). Description: KDR autophosphorylation ELISA in HUVEC cells. Conditions: cellular, VEGF165-stimulated, phospho-KDR ELISA. The procedure:
Human umbilical vein endothelial cells or HUVEC (Lonza #C2519A) were seeded at 2×10^4 cells/well onto 96-well plates (Corning #3904), in EGM-2 growth medium (Lonza #CC-3162) containing 1% Penicillin Streptomycin (Thermo Fisher #15140-122). HUVEC cells were incubated at 37° C., 5% CO2 for 24 h and then starved for 24 h in serum-free EBM-2 basal medium (Lonza #CC-3156) containing 1% Penicillin Streptomycin. Test compounds were serially diluted to produce an 8-point dose curve in fresh serum-free medium to a final concentration of 0.3% DMSO (vehicle) and added to the cells and incubated for 1 h. Cells were then stimulated with 100 ng/mL recombinant human VEGF165 (R&D Systems #293-VE-500) for 5 min, washed with cold PBS, and immediately lysed with 130 μL of cold 1× lysis buffer [20 mM Tris, 137 mM sodium chloride, 2 mM EDTA, 10% glycerol, 1% NP-40 alternative, 1 mM activated sodium orthovanadate, 1 mM PefaBloc SC (Sigma-Aldrich #11429868001), protease/phosphatase inhibitor tablet (Thermo Fisher #A32959)]. Lysates were collected and 100 μL/well added into the human phospho-KDR DuoSet IC ELISA (R&D Systems #DYC1766-2). Assay was performed according to manufacturer's instructions and sample phospho-KDR concentrations were extrapolated using human phospho-KDR control (R&D Systems #841421) as a standard. Positive control wells (100% activity) contained VEGF165-stimulated, DMSO-treated cell lysates. Negative control wells (0% activity) contained non-stimulated cell lysates. IC50 values were calculated by nonlinear regression analysis using a 4-parameter logistic curve fit in ActivityBase XE (IDBS).

Chain of KDR (P35968 20-1356): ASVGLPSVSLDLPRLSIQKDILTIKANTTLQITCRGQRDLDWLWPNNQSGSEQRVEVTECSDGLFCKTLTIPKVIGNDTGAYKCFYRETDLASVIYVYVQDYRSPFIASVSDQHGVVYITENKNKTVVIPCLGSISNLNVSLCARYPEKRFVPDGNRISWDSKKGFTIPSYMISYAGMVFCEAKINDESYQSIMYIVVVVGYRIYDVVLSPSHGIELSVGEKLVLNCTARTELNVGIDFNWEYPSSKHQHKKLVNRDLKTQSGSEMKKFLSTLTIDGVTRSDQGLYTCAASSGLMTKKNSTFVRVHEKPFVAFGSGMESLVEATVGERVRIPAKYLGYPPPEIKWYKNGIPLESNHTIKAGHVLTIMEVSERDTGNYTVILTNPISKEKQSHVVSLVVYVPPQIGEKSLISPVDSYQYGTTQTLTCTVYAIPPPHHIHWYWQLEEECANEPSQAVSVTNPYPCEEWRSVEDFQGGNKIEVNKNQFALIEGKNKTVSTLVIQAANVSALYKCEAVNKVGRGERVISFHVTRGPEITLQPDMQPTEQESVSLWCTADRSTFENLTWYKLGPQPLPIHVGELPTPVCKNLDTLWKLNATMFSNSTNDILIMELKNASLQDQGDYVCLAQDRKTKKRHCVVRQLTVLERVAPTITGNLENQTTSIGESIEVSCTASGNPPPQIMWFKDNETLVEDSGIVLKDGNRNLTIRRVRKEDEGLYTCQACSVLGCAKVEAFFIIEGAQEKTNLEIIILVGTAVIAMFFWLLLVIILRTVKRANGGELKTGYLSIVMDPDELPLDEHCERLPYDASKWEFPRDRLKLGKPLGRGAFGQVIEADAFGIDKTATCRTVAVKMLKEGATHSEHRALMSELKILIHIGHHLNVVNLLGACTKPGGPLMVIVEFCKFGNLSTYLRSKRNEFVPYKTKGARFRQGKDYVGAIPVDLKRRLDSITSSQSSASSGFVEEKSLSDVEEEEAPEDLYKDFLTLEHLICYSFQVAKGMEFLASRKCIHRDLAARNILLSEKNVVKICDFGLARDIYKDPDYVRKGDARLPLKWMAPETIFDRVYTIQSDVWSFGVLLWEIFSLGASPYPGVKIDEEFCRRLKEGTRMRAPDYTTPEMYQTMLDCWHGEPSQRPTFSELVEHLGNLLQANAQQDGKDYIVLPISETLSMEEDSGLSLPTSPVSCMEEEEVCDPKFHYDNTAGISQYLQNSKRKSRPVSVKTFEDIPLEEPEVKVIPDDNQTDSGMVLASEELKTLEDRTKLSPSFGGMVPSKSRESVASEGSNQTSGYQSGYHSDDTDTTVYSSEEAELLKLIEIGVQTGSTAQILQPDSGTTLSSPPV
Chain of Met (P08581 25-1390): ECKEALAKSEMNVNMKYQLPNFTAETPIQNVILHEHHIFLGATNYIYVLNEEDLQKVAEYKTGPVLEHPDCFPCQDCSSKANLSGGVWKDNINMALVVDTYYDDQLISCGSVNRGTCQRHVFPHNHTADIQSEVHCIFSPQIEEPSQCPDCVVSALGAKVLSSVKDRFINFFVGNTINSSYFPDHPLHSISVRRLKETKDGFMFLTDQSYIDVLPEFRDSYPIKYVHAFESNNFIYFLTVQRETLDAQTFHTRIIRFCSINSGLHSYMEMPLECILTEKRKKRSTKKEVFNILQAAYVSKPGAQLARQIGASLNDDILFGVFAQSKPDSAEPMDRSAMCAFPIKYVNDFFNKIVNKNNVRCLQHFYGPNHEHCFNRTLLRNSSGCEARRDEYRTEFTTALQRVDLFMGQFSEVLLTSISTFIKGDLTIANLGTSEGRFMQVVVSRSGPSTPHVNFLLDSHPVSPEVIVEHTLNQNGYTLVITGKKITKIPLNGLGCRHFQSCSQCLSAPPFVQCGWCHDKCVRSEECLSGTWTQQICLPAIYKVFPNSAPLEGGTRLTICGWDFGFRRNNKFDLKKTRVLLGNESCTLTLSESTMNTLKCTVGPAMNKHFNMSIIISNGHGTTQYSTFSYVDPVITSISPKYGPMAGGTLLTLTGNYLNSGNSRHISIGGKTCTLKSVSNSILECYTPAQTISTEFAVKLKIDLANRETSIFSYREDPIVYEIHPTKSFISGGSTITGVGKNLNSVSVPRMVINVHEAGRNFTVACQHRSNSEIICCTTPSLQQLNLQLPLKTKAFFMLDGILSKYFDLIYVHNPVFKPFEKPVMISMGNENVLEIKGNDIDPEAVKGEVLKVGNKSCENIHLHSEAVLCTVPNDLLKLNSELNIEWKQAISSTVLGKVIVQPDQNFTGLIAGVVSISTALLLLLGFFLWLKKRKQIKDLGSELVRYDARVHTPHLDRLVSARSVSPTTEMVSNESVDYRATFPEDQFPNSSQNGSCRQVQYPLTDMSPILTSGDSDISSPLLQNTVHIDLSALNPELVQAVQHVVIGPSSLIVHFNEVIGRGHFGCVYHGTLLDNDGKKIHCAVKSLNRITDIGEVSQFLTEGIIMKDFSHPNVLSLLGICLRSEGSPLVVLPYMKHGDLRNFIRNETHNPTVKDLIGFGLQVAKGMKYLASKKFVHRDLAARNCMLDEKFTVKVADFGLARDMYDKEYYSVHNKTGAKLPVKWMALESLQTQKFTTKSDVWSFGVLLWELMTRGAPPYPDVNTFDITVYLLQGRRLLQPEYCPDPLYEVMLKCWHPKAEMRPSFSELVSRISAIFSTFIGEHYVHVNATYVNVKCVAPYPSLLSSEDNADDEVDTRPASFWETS
Chain of AXL (P30530 26-894): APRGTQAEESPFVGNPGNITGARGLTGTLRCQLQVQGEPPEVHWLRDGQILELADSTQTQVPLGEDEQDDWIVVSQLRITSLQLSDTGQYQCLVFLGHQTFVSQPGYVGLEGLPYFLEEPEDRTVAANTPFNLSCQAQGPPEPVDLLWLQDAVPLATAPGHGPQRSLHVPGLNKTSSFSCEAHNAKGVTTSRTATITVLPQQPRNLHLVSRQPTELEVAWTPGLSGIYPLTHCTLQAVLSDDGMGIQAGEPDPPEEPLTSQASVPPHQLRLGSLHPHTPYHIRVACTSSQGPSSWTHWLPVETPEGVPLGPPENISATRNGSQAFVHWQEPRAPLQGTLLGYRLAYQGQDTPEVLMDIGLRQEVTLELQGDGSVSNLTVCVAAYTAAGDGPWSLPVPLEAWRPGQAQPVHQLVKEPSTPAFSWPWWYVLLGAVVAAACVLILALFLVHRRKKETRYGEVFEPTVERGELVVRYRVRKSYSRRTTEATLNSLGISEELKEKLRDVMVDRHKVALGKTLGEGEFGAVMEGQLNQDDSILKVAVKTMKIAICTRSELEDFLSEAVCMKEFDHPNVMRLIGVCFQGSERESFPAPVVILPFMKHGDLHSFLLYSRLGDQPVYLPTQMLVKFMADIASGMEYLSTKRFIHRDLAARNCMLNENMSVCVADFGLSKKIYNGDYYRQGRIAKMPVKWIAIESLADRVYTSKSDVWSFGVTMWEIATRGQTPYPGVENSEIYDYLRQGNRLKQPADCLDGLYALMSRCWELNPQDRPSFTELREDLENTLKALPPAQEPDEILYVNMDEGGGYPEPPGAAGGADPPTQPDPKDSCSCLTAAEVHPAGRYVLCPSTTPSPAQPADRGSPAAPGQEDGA

As a reminder, the IC50 is the concentration that inhibits the measured activity by half. In the case of `COc1cc2nccc(Oc3ncc(NC(=O)C4(C(=O)Nc5ccc(F)cc5)CC4)cc3F)c2cc1C(=O)O` [Compound 15, 4-[3-Fluoro-5-[[1-[(4-fluorophenyl)carbamoyl]cyclopropanecarbonyl]amino]pyridin-2-yl]oxy-7-methoxyquinoline-6-carboxylic acid], the IC50 at AXL, on Met and against KDR was more than 300 nM throughout.

`COCc1noc(-c2cc3c(Oc4ncc(NC(=O)C5(C(=O)Nc6ccc(F)cc6)CC5)cc4F)ccnc3cc2OC)n1` [Compound 25, 1-N′-[5-Fluoro-6-[7-methoxy-6-[3-(methoxymethyl)-1,2,4-oxadiazol-5-yl]quinolin-4-yl]oxypyridin-3-yl]-1-N-(4-fluorophenyl)cyclopropane-1,1-dicarboxamide]: the IC50 against AXL, at Met and against KDR was more than 300 nM throughout.

With `COCCc1noc(-c2cc3c(Oc4ncc(NC(=O)C5(C(=O)Nc6ccc(F)cc6)CC5)cc4F)ccnc3cc2OC)n1` [Compound 26, 1-N′-[5-Fluoro-6-[7-methoxy-6-[3-(2-methoxyethyl)-1,2,4-oxadiazol-5-yl]quinolin-4-yl]oxypyridin-3-yl]-1-N-(4-fluorophenyl)cyclopropane-1,1-dicarboxamide], the IC50 at AXL, at Met and on KDR was more than 300 nM each time.

In the case of `CCc1noc(-c2cc3c(Oc4ncc(NC(=O)C5(C(=O)Nc6ccc(F)cc6)CC5)cc4F)ccnc3cc2OC)n1` [Compound 27, 1-N′-[6-[6-(3-Ethyl-1,2,4-oxadiazol-5-yl)-7-methoxyquinolin-4-yl]oxy-5-fluoropyridin-3-yl]-1-N-(4-fluorophenyl)cyclopropane-1,1-dicarboxamide], the IC50 against AXL, at Met and at KDR was more than 300 nM each time.

For the molecule `CNC(=O)c1cc2c(Oc3ncc(NC(=O)C4(C(=O)Nc5ccc(F)cc5)CC4)cc3F)ccnc2cc1OCCO` [Compound 44, 1-N′-[5-Fluoro-6-[7-(2-hydroxyethoxy)-6-(methylcarbamoyl)-quinolin-4-yl]oxypyridin-3-yl]-1-N-(4-fluorophenyl)cyclopropane-1,1-dicarboxamide], the IC50 against AXL is 10 to 100 nM; on Met, 10 to 100 nM; on KDR, more than 300 nM.

On to `COc1cc2nccc(Oc3cc(C)c(NC(=O)C4(C(=O)Nc5ccc(F)cc5)CC4)cn3)c2nc1OC` [Compound 83, 1-N′-[6-[(6,7-Dimethoxy-1,5-naphthyridin-4-yl)oxy]-4-methylpyridin-3-yl]-1-N-(4-fluorophenyl)cyclopropane-1,1-dicarboxamide], for which the IC50 against AXL, on Met and against KDR was more than 300 nM each time.

Take `COc1cc2nccc(Oc3ncc(NC(=O)C4(C(=O)Nc5ccc(F)cc5)CC4)cc3C#N)c2nc1OC` [Compound 84, 1-N′-[5-Cyano-6-[(6,7-dimethoxy-1,5-naphthyridin-4-yl)oxy]pyridin-3-yl]-1-N-(4-fluorophenyl)cyclopropane-1,1-dicarboxamide]: the 50% inhibitory concentration (IC50) against AXL, on Met and against KDR was more than 300 nM throughout.

For the molecule `COc1cc2nccc(Oc3ncc(NC(=O)C4(C(=O)Nc5ccc(F)cc5)CC4)cc3C)c2nc1OC` [Compound 85, 1-N′-[6-[(6,7-Dimethoxy-1,5-naphthyridin-4-yl)oxy]-5-methylpyridin-3-yl]-1-N-(4-fluorophenyl)cyclopropane-1,1-dicarboxamide], the concentration for half-maximal inhibition (IC50) against AXL, at Met and on KDR was more than 300 nM each time.

With `COc1cc(Oc2ccnc3cc(OC)c(OC)nc23)ncc1NC(=O)C1(C(=O)Nc2ccc(F)cc2)CC1` [Compound 88, 1-N′-[6-[(6,7-Dimethoxy-1,5-naphthyridin-4-yl)oxy]-4-methoxypyridin-3-yl]-1-N-(4-fluorophenyl)cyclopropane-1,1-dicarboxamide], the half-maximal inhibitory concentration (IC50) was 100 to 300 nM against AXL, more than 300 nM on Met and more than 300 nM against KDR.

With `COc1cc2nccc(Oc3ncc(NC(=O)C4(C(=O)Nc5ccc(F)cc5)CC4)cc3C(F)(F)F)c2nc1OC` [Compound 89, 1-N′-[6-[(6,7-Dimethoxy-1,5-naphthyridin-4-yl)oxy]-5-(trifluoromethyl)pyridin-3-yl]-1-N-(4-fluorophenyl)cyclopropane-1,1-dicarboxamide], the IC50 at AXL, on Met and on KDR was more than 300 nM throughout.

Take `COc1cc2nccc(Oc3nc(C)c(NC(=O)C4(C(=O)Nc5ccc(F)cc5)CC4)cc3Br)c2nc1OC` [Compound 90, 1-N′-[5-Bromo-6-[(6,7-dimethoxy-1,5-naphthyridin-4-yl)oxy]-2-methylpyridin-3-yl]-1-N-(4-fluorophenyl)cyclopropane-1,1-dicarboxamide]: the IC50 on AXL, at Met and at KDR was more than 300 nM throughout.

Turning to `COc1cc2nccc(Oc3ccc(NC(=O)C4(C(=O)Nc5ccc(F)cc5)CC4)c(C(N)=O)n3)c2nc1OC` [Compound 91, 1-N′-[2-Carbamoyl-6-[(6,7-dimethoxy-1,5-naphthyridin-4-yl)oxy]pyridin-3-yl]-1-N-(4-fluorophenyl)cyclopropane-1,1-dicarboxamide], the IC50 on AXL, on Met and against KDR was more than 300 nM throughout.

As for `COc1cc2nccc(Oc3ncc(NC(=O)C4(C(=O)Nc5ccc(F)cc5)CC4)cc3OC)c2nc1OC` [Compound 92, 1-N′-[6-[(6,7-Dimethoxy-1,5-naphthyridin-4-yl)oxy]-5-methoxypyridin-3-yl]-1-N-(4-fluorophenyl)cyclopropane-1,1-dicarboxamide], the half-maximal inhibitory concentration (IC50) on AXL, on Met and against KDR was more than 300 nM throughout.

On to `O=C(Nc1ccc(F)cc1)C1(C(=O)Nc2ccc(Oc3ccnc4cc5c(nc34)OCCO5)nc2)CC1` [Compound 103, 1-N′-[6-(2,3-Dihydro-[1,4]dioxino[2,3-b][1,5]naphthyridin-6-yloxy)pyridin-3-yl]-1-N-(4-fluorophenyl)cyclopropane-1,1-dicarboxamide], for which the IC50 at AXL, at Met and on KDR was more than 300 nM throughout.
